Tests used:
Format in all cases: in vivo, human
healthy male adults [1] = assay: Social cognition task: emotional and trustworthiness ratings of facial images; conditions: 1 IU IV over 20 min, estimated mean (SE), linear mixed model, SEM
Method: Participants completed the social cognition task 40 min after treatment in a magnetic resonance imaging scanner while functional magnetic resonance imaging and physiology data were recorded (results to be reported separately). Participants were presented with visual stimuli through magnetic resonance imaging-compatible goggles (VisualSystem; NordicNeuroLab, Bergen, Norway) using E-Prime 2.0 (Psychology Software Tools, PA, USA) and responded using a grip response collection system (ResponseGrip, NordicNeuroLab).
For the primary emotional expression evaluation outcome measure, participants were presented with 20 male and 20 female faces (as used previously[55]) displaying angry, happy and emotionally ambiguous facial expressions (derived from the Karolinska Directed Emotional Faces database[56]) and 20 images of geometrical shapes (data not presented). Following each presentation, participants were asked either: How angry is this person? (anchors: not angry—very angry) or How happy is this person? (anchors: not happy—very happy). Q2 was always the same: How much would you trust this person? (anchors: not at all—very much). Participants were asked to rank their answer on a visual analog scale from 1 to 5, with location of the cursor on the visual analog scale randomized for each question. Mean ratings for each of the questions were averaged per session within each of the emotional categories, yielding seven behavioral variables (Q1: Happy face—happy, Happy face—angry, ambiguous face—happy, ambiguous face—angry, angry face—happy, angry face—angry; Q2: Trust). These stimuli and questions were chosen to assess three levels of emotion perception; ambiguous, non-ambiguous with corresponding cues and ratings (for example, angry ratings of angry faces) and non-ambiguous with conflicting cues and ratings (for example, angry ratings of happy faces).
(§1) Analysis was conducted using IBM SPSS Statistics version 22 (IBM, Armonk, NY, USA) to explore pharmacokinetics and examine the impact of treatment on outcome measures. A linear mixed-model (LMM) approach was adopted[58] for the analysis of emotional expression evaluation, pharmacokinetics, state anxiety and trustworthiness. In contrast to a repeated-measures analysis of variance approach, LMM allows for the inclusion of participants in the analysis even if data are missing for some of the treatment conditions. All the models were fitted using an unstructured matrix. For any significant main effects (that is, P<0.05), post hoc tests were performed with the adjustment of critical P-values to correct for multiple comparisons using a 5% false discovery rate.[59] Experimental treatment was both a fixed and repeated effect in the LMM testing the impact of treatment on emotion and trustworthiness ratings. To investigate the impact of treatment on anxiety and blood plasma concentration of OT, AVP and cortisol, an LMM was fitted with three fixed factors (treatment, time, treatment × time) and one repeated factor (treatment).

[2] = Oxytocin blood plasma concentration (ELISA); conditions: 1 IU IV over 20 min
Method: (§2) Blood samples were collected to assess peripheral levels of OT, AVP and cortisol at baseline and five time points after the completion of the 20-min IV administration (0, 10, 30, 60 and 120 mins) throughout the session. Up to two punctures with catheter placement were made to collect these blood samples, which were centrifuged at 4 °C within 5 min of blood draw with plasma frozen at −80 °C. Enzyme-linked immunosorbent assay using commercial kits (Enzo Life Sciences, Farmingdale, NY, USA) was performed using standard techniques (including sample extraction[57]).
as §1, with “Experimental treatment was both a fixed and repeated effect in the LMM testing the impact of treatment on emotion and trustworthiness ratings. To investigate the impact of treatment on anxiety and blood plasma concentration of OT, AVP and cortisol, an LMM was fitted with three fixed factors (treatment, time, treatment × time) and one repeated factor (treatment).” left out

cortisol = assay: Cortisol blood plasma concentration (ELISA); conditions: 1 IU IV, LMM pairwise comparison
Method: as §2, §1

healthy male adults [3] = assay: Self-reported adverse events; conditions: 1 IU IV; 16 healthy males, single dose
Method: At various points (−20, 0, 10, 30, 60 and 120 mins relative to start of functional magnetic resonance imaging) throughout testing, participants reported the presence and severity of any adverse effects.

[4] = Open label pilot study of peripheral OT pharmacokinetics; conditions: 5 participants, 1IU IV in 200ml 0.9% NaCl, 600ml/hour over 20 minutes, 30 to 60 minutes post-administration
Method: An open label pilot study comparing the pharmacokinetics of 24IU OPN-OT and 1IU IV-OT was conducted with 5 eligible participants (4 of these participants participated in the main study) to ensure that 1IU IV-OT would equal or exceed the serum exposure following IN-OT treatment. The IV OT (1IU) was mixed in 200ml 0.9% NaCl and administered at an infusion rate of 600ml/hour over 20 minutes. Blood was sampled just before administration (baseline) and at seven timepoints after completion of administration (10, 20, 30, 45, 60, 90, and 120 minutes). […] There was a one-month washout period, at the minimum, between participation in the pilot study and the experimental phase.

CC[C@H](C)[C@@H]1NC(=O)[C@H](Cc2ccc(O)cc2)NC(=O)[C@@H](N)CSSC[C@@H](C(=O)N2CCC[C@H]2C(=O)N[C@@H](CC(C)C)C(=O)NCC(N)=O)NC(=O)[C@H](CC(N)=O)NC(=O)[C@H](CCC(N)=O)NC1=O [IV OT, oxytocin]
Angry ratings of ambiguous faces (healthy male adults [1]; single dose, task 40 min after treatment, visual analog scale 1 to 5, 16 healthy males): 2.32 (0.18) | Trustworthiness (healthy male adults [1]; collapsed across emotional categories, scale 1 to 5): 3.16 (0.05) | Angry ratings of angry faces (healthy male adults [1]; scale 1 to 5): 3.68 (0.2) | Angry ratings of happy faces (healthy male adults [1]; scale 1 to 5): 1.24 (0.02) | Happy ratings of ambiguous faces (healthy male adults [1]; scale 1 to 5): 2.38 (0.14) | Happy ratings of happy faces (healthy male adults [1]; scale 1 to 5): 4.31 (0.13) | Plasma OT concentration compared with placebo ([2]; baseline and 0, 10, 30, 60, 120 min, ELISA with extraction, LMM pairwise comparison, P<0.001): significantly increased | Plasma OT concentration, simple effect for time ([2]; shortly after IV administration compared with all other time points, all P<0.001): significantly higher concentrations shortly after IV administration | Cortisol blood plasma concentration compared with 8 IU OPN-OT (cortisol): but not 8 IU OPN-OT | Cortisol blood plasma concentration compared with 24 IU OPN-OT (cortisol; P<0.001): significantly increased | Cortisol blood plasma concentration compared with placebo (cortisol; P=0.01): significantly increased | Adverse events (for example, brief dizziness) (healthy male adults [3]): three | Peripheral (serum) OT levels relative to 24IU OPN-OT [4]: reasonably approximated the levels achieved after 24IU OPN-OT administration

— publication PMC5068727, “Low-dose oxytocin delivered intranasally with Breath Powered device affects social-cognitive behavior: a randomized four-way crossover trial with nasal cavity dimension assessment” (Translational Psychiatry, 2015)
